Patent publication US20240409536A1, “COMPOUNDS AND METHODS FOR MODULATING SPLICING” (REMIX THERAPEUTICS INC., priority 2021, published 2024)

Tests used:
HTT mRNA = test: Splicing RT-qPCR assay, HTT canonical (CJ) and alternative (AJ) junction mRNA; format: cell-based; settings: Homo sapiens, A673 or K562 cells, 24 hours; for IC50: decrease in canonical junction mRNA; for AC50: increase in alternative junction mRNA
How it was run: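 RT-qPCR read-out: CJ and AJ junction isoforms quantified from cell lysates, normalized to housekeeping GAPDH/GUSB (K562) or PPIA (A673). Cells had 24 h compound exposure, 11-point 3-fold series from 10 uM final, ≤0.25% DMSO.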

MYB mRNA = test: Gene panel canonical junction qPCR assay, MYB CJ mRNA decrease; format: cell-based, human; settings: Homo sapiens, canonical junction qPCR, read-out: MYB IC50 (decrease in CJ mRNA levels)
How it was run: (§1)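 A673 or K562 cells treated with compound; canonical exon-exon junction mRNA quantified by cDNA synthesis and RT-qPCR with junction-spanning primer/probe, normalized to GAPDH, GUSB or PPIA and DMSO (2^(−ΔΔCt)). Percent response from set ΔCt assay windows fitted to 4-parameter logistic; IC50 for CJ decrease.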

SMN2 mRNA = test: Gene panel canonical junction qPCR assay, SMN2 CJ mRNA decrease; format: cell-based, human; settings: Homo sapiens, canonical junction qPCR, read-out: SMN2 IC50 (decrease in CJ mRNA levels)
How it was run: as §1

| IC50 (HTT mRNA) | IC50 (MYB mRNA) | IC50 (SMN2 mRNA) | SMILES | AC50 (HTT mRNA) |
| --- | --- | --- | --- | --- |
| 1000 to 10000 nM | < 100 nM | < 100 nM | CNC1CCN(c2ccc(C(=O)Nc3cc(F)c4nc(C)cn4c3)c3nnccc23)C1 (stereo not shown) [Compound 231, N-{8-fluoro-2-methylimidazo[1,2-a]pyridin-6-yl}-5-[3-(methylamino)pyrrolidin-1-yl] cinnoline-8-carboxamide] | 1000 to 10000 nM |
| 1000 to 10000 nM | 100 to 1000 nM | < 100 nM | COCCOc1ccc2c(N3C[C@@H](C)N[C@@H](C)C3)ccc(C(=O)Nc3cc(F)c4nc(C)cn4c3)c2n1 [Compound 232, 5-[(3R,5S)-3,5-dimethylpiperazin-1-yl]-N-{8-fluoro-2-methylimidazo[1,2-a]pyridin-6-yl}-2-(2-methoxyethoxy)quinoline-8-carboxamide] | 1000 to 10000 nM |
| 1000 to 10000 nM | > 10000 nM | > 10000 nM | Cc1cn2cc(NCc3ccc(N4CCNCC4)c4ccnnc34)cc(F)c2n1 [Compound 230, 8-fluoro-2-methyl-N-{[5-(piperazin-1-yl)cinnolin-8-yl]methyl}imidazo[1,2-a]pyridin-6-amine] | > 10000 nM |
| 100 to 1000 nM | < 100 nM | < 100 nM | CCNC1CCN(c2ccc(C(=O)Nc3cc(F)c4nc(C)cn4c3)c3nc(C)ccc23)CC1 [Compound 228, 5-[4-(ethylamino)piperidin-1-yl]-N-{8-fluoro-2-methylimidazo[1,2-a]pyridin-6-yl}-2-methylquinoline-8-carboxamide] | 100 to 1000 nM |
|  | < 100 nM | < 100 nM | Cc1cnc2c(C(=O)Nc3cc(F)c4nc(C)cn4c3)ccc(N3C[C@@H](C)N[C@@H](C)C3)c2n1 [Compound 217, 8-((3R,5S)-3,5-dimethylpiperazin-1-yl)-N-{8-fluoro-2-methylimidazo[1,2-a]pyridin-6-yl}-2-methylquinoxaline-5-carboxamide] |  |
| 1000 to 10000 nM | 100 to 1000 nM | < 100 nM | CCNC1CCN(c2ccc(C(=O)Nc3cc(F)c4nc(C)cn4c3)c3nc(OCCOC)ccc23)CC1 [Compound 233, 5-[4-(ethylamino)piperidin-1-yl]-N-{8-fluoro-2-methylimidazo[1,2-a]pyridin-6-yl}-2-(2-methoxyethoxy)quinoline-8-carboxamide] | 1000 to 10000 nM |
| > 10000 nM | 1000 to 10000 nM | < 100 nM | CNC1CCN(c2ccc(C(=O)Nc3cc(F)c4nc(C)cn4c3)c3ncc(OC)nc23)C1 (stereo in doubt) [Compound 227, (R)—N-(8-fluoro-2-methylimidazo[1,2-a]pyridin-6-yl)-2-methoxy-8-(3-(methylamino)pyrrolidin-1-yl)quinoxaline-5-carboxamide 2,2,2-trifluoroacetate] | > 10000 nM |
| 1000 to 10000 nM | 1000 to 10000 nM | 100 to 1000 nM | Cc1cn2cc(NC(=O)c3ccc(N4CCC(NC(C)(C)C)C4)c4ccnnc34)cc(F)c2n1 (stereo not shown) [Compound 109] | 1000 to 10000 nM |
| > 10000 nM | 100 to 1000 nM | < 100 nM | COCCOc1ccc2c(N3CCC(N(C)C)CC3)ccc(C(=O)Nc3cc(F)c4nc(C)cn4c3)c2n1 [Compound 229, 5-[4-(dimethylamino)piperidin-1-yl]-N-{8-fluoro-2-methylimidazo[1,2-a]pyridin-6-yl}-2-(2-methoxyethoxy)quinoline-8-carboxamide] | > 10000 nM |
